Results: publication PMC11714206, “Massively Parallel Screening of Toll/Interleukin‐1 Receptor (TIR)‐Derived Peptides Reveals Multiple Toll‐Like Receptors (TLRs)‐Targeting Immunomodulatory Peptides” (Advanced Science, 2024)
Values belong to the sequence of their own block, whether it stands above or below them.

Target: T1, MAL^TIR (Homo sapiens, UniProt P58753)
T1 construct: MAL (residues 79–221); 6xHis; made in house; host or cells: E. coli BL21 (DE3)
Assay: T‐Surf phage library (P8 and P3) selection against MAL^TIR, four rounds, NGS read counts
Format: binding
Conditions: for P8_MAL Rank (after) / P8_MAL Rank (before): P8 library; for Population: 4th round of selection against MAL TIR, share of NGS reads; for P3_MAL Rank (after) / P3_MAL Rank (before): P3 library
Summary of the method: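 Four panning rounds on TIR domain adsorbed at 5 µg mL^−1; binding 1 h at 20–22 °C, elution with 100 mM HCl. Output: NGS read counts of round‐4 pools versus naïve library.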

[1] = selection against MAL, rank by count after grouping
[2] = selection against MAL, rank by count before grouping
[3] = P8_MAL: rank by count after grouping
[4] = P8_MAL: rank by count before grouping
[5] = selection against MAL TIR, rank by count after grouping
[6] = selection against MAL TIR, rank by count before grouping
[7] = P3_MAL pool: P3 T-Surf phage library
[8] = 4R selection against MAL, rank after grouping
[9] = 4R selection against MAL, rank before grouping
[10] = selection against MAL, rank after grouping
[11] = selection against MAL, rank before grouping
[12] = P3_MAL: rank by count after grouping
[13] = P3_MAL: rank by count before grouping

T1 sequence (P58753 79-221): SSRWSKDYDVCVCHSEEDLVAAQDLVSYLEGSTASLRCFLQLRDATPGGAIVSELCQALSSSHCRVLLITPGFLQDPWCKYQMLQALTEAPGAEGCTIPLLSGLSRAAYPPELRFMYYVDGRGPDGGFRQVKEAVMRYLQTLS

P8_MAL Rank (after) [1]: 688
P8_MAL Rank (before) [2]: 1833
Sequence: AFLYTFLIILTHPINF

Rank (after) [3]: 401
Rank (before) [4]: 1858
Sequence: AFLYTFLINLTPPTEY

Population (P8_MAL pool: P8 T-Surf phage library): 0.00309%
Sequence: RNFVAYLFQALANKSI

P3_MAL Rank (after) [5]: 209
P3_MAL Rank (before) [6]: 1463
Sequence: YAFTDHLHRYVVQRGV

Rank (after) [3]: 424
Rank (before) [4]: 1661
Sequence: AFFWAQLKSVLGNPPV

P3_MAL Rank (after) [5]: 195
P3_MAL Rank (before) [6]: 1542
Sequence: YTALTNIGFHTFLDND

P8_MAL Rank (after) [5]: 254
P8_MAL Rank (before) [6]: 2246
Sequence: RNLGAYLFQALANKGI

P8_MAL Rank (after) [5]: 204
P8_MAL Rank (before) [6]: 2014
Sequence: DTKLKKCESIAPELLL

Population [7]: 0.00526%
Sequence: DQWRNALTAAANLSGW

Rank (after) [3]: 385
Rank (before) [4]: 1403
Sequence: WCYERRVSLILRETKV

P8_MAL Rank (after) [8]: 625
P8_MAL Rank (before) [9]: 2560
Sequence: TFLGHLYMRWCRRAF

P8_MAL Rank (after) [5]: 235
P8_MAL Rank (before) [6]: 2291
Sequence: RNNFIGHQYQALYRSR

Sequence: WRCLNFVPRCIMCCR
P3_MAL Rank (after) [10]: 482
P3_MAL Rank (before) [11]: 1287

Rank (after) [3]: 135
Rank (before) [4]: 2614
Sequence: TFLGNLYNALVKAGIH

P3_MAL Rank (after) [8]: 648
P3_MAL Rank (before) [9]: 2376
Sequence: RGFLSHLRHHLQAKD

Rank (after) [3]: 189
Rank (before) [4]: 1444
Sequence: SFYERLVRLILRDTTV

Rank (after) [3]: 113
Rank (before) [4]: 556
Sequence: WFWDKLKYALPHRYEP

P3_MAL Rank (after) [8]: 663
P3_MAL Rank (before) [9]: 2959
Sequence: MSQRYQGLKNRGIFTF

P3_MAL Rank (after) [8]: 659
P3_MAL Rank (before) [9]: 2860
Sequence: HQAFWERLWAKMQAPI

Rank (after) [12]: 399
Rank (before) [13]: 2081
Sequence: LGFLSHLALNLQAKEH

P8_MAL Rank (after) [8]: 603
P8_MAL Rank (before) [9]: 2242
Sequence: RNLVAYLLQPRANKCI

P8_MAL Rank (after) [5]: 196
P8_MAL Rank (before) [6]: 791
Sequence: YFLHFLLLAVRKPSI

Population [7]: 0.00902%
Sequence: HQWRNALTAAANLSGW

Rank (after) [3]: 127
Rank (before) [4]: 1699
Sequence: AFFWEQLRTLLGQPTM

Rank (after) [12]: 162
Rank (before) [13]: 1483
Sequence: YAFKGNLHRYLVQRGV

P3_MAL Rank (after) [10]: 493
P3_MAL Rank (before) [11]: 2562
Sequence: RPLKWKEALHQFHSRV

P8_MAL Rank (after) [5]: 270
P8_MAL Rank (before) [6]: 2247
Sequence: RNSVAYLFQALADKGI

Rank (after) [12]: 437
Rank (before) [13]: 2995
Sequence: SFFWNKLRYALTYRPAT

P3_MAL Rank (after) [8]: 581
P3_MAL Rank (before) [9]: 2353
Sequence: RGFLYQAFAREGFKIFM

P8_MAL Rank (after) [10]: 524
P8_MAL Rank (before) [11]: 2534
Sequence: TFLGAQHKTVVRAATH

Rank (after) [12]: 466
Rank (before) [13]: 3611
Sequence: KERPFGAQRAEKWRTALT

P8_MAL Rank (after) [10]: 506
P8_MAL Rank (before) [11]: 2428
Sequence: HLFCIQLKSILGETSF

Rank (after) [3]: 412
Rank (before) [4]: 1352
Sequence: WFLSAFLIPMAQLADT

P3_MAL Rank (after) [10]: 536
P3_MAL Rank (before) [11]: 1341
Sequence: YVFTGNLHRYLMQLGV

Population [7]: 0.0436%
Rank (after) [12]: 99
Rank (before) [13]: 99
Sequence: SKDYAQSAWALEELTK

P8_MAL Rank (after) [8]: 622
P8_MAL Rank (before) [9]: 1711
Sequence: AFFWEHLRPLLGKQAM

Rank (after) [3]: 181
Rank (before) [4]: 2616
Sequence: TFLGHLYNALLQPGIH

P3_MAL Rank (after) [1]: 707
P3_MAL Rank (before) [2]: 1752
Sequence: GCLYQAFARAGFKIFM

Rank (after) [3]: 479
Rank (before) [4]: 2561
Sequence: TFLGHLYSALVHAGIH

P8_MAL Rank (after) [8]: 598
P8_MAL Rank (before) [9]: 1976
Sequence: DFLNWFIALKSTVLET

P3_MAL Rank (after) [1]: 683
P3_MAL Rank (before) [2]: 1767
Sequence: GPDTRRKFISFLYKEL

Rank (after) [12]: 414
Rank (before) [13]: 2563
Sequence: RHFAGLLYDRLTKTGV

P8_MAL Rank (after) [5]: 216
P8_MAL Rank (before) [6]: 760
Sequence: WFMMKFRTVLGKPTM

Rank (after) [3]: 406
Rank (before) [4]: 1287
Sequence: WFYERLVSMVLRDTKV

P3_MAL Rank (after) [5]: 225
P3_MAL Rank (before) [6]: 2932
Sequence: MERVKAFHQRLKTAPI

Population [7]: 0.00376%
Sequence: NQWRNTLTAAANLSGW

Population [7]: 0.00639%
Sequence: GSFREGLWRLLELSKK

P3_MAL Rank (after) [10]: 541
P3_MAL Rank (before) [11]: 2842
Sequence: HHKGSYGEALHQFHSWV

P8_MAL Rank (after) [8]: 585
P8_MAL Rank (before) [9]: 2212
Sequence: RNFVAYLFQALANTSI

P8_MAL Rank (after) [8]: 657
P8_MAL Rank (before) [9]: 2687
Sequence: KLFWEKLKLFLPSLSR

P8_MAL Rank (after) [8]: 631
P8_MAL Rank (before) [9]: 1693
Sequence: AFFWEQLRTVLRKPTT

P3_MAL Rank (after) [5]: 246
P3_MAL Rank (before) [6]: 3130
Sequence: SSFRDGLWRLPELSKK

P3_MAL Rank (after) [8]: 668
P3_MAL Rank (before) [9]: 2560
Sequence: RRLKWKEALHQLYSWV

Rank (after) [3]: 440
Rank (before) [4]: 2473
Sequence: SEFIQKIILWMNQTNV
